These results are taken from patent publication US8173627B2, “Neuroprotective effect of solubilized UDCA in focal ischemic model” (priority 2004, dated 2012).

A short description of this series: HPLC bile acid analysis of plasma and brain. The following applies: after UDCA and TUDCA administration. Format: in vivo, rat. The method, then: Rats were separated into 5 groups, and each received a single injection of vehicle (n=18), 25 mg s-UDCA/Kg (n=9), 100 mg UDCA/Kg (n=18), 400 mg UDCA/kg (n=9), and 400 mg TUDCA/kg (n=9) intravenously immediately after reperfusion.
Blood and brain were collected 1 hour after s-UDCA, TUDCA, or vehicle injection, and were assessed by HPLC for bile acid analysis. Briefly, whole blood was drawn, clotted, and centrifuged and plasma was separated and frozen. After appropriate, humane anesthesia (5% chloral hydrate) and transcardial phosphate buffer perfusion, brains were removed, flash-frozen, and stored at −70° C. Free UDCA concentrations were measured by HPLC (JASCO HPLC Bile Acids Analysis System). Bile acids were assessed by HPLC according to, for example, U.S. patent application Ser. No. 09/778,154 filed Feb. 5, 2001, the full disclosure of which is hereby incorporated by reference.

Each structure is given as a SMILES string.

For the compound `C[C@H](CCC(=O)NCCS(=O)(=O)O)[C@H]1CC[C@H]2[C@@H]3[C@@H](O)C[C@@H]4C[C@H](O)CC[C@]4(C)[C@H]3CC[C@]12C` [TUDCA, tauroursodeoxycholic acid], the “TUDCA detected in brain as well as blood” value is “not detected”.
